According to paper PMC9496321, “6-Furopyridine Hexamethylene Amiloride Is a Non-Selective P2X7 Receptor Antagonist” (Biomolecules, 2022):

Key:
[1] = target: T1, endogenous hP2X7 (Homo sapiens, UniProt Q99572); assay: ATP-induced ethidium+ uptake in RPMI8226 multiple myeloma cells (flow cytometry); type: cell-based
T1 construct: endogenous in cells; host or cells: RPMI8226 cells
T1 sequence (Q99572 1-595): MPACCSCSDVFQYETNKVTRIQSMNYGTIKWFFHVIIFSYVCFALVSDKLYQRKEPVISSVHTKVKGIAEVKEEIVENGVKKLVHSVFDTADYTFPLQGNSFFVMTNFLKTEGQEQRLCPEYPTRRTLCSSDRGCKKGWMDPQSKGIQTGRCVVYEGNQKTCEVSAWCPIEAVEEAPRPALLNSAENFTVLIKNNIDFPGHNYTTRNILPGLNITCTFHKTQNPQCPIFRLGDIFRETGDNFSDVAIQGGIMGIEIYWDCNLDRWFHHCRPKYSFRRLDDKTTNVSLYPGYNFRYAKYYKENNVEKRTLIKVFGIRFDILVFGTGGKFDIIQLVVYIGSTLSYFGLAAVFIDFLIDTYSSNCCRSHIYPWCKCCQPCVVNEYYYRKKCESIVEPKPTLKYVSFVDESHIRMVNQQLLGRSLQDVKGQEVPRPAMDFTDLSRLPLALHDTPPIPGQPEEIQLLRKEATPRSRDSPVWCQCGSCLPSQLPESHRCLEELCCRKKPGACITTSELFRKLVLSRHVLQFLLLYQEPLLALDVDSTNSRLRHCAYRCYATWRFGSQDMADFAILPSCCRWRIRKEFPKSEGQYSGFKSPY

[2] = tested on: endogenous hP2Y receptors, including hP2Y1, hP2Y2 and hP2Y4; assay: Fura-2AM Ca2+ response assay in non-transfected HEK293 cells; type: cell-based, human
Protocol: Ca^2+ response assays were conducted as described. Briefly, HEK293, HEK-hP2X7 or HEK-hP2X4 cells were harvested and plated in black, clear-bottom 96-well plates at 5 × 10^4 cells/well overnight (37 °C, 95% air/5% CO2). Cells were washed with extracellular Ca^2+ solution (ECS) (145 mM NaCl, 2 mM CaCl2, 5 mM KCl, 13 mM glucose and 10 mM HEPES, pH 7.4) and incubated with Fura-2AM loading buffer (2.5 μM Fura-2AM and 0.2% pluronic acid in ECS) (37 °C, 95% air/5% CO2, 30 min, dark). Loading buffer was removed; cells were washed once with ECS and incubated in ECS (37 °C, 95% air/5% CO2, 20 min, dark) to allow Fura-2AM de-esterification. Where indicated, cells were pre-incubated with compound or vehicle (DMSO) (37 °C, 30 min, dark). Fura-2 fluorescence at 510 nm was measured every 5 s using a FlexStation 3 (Molecular Devices, San Jose, CA, USA). […] Data was acquired using SoftMax Pro version 7.0 (Molecular Devices). Relative changes in intracellular Ca^2+ were calculated using the ratio of Fura-2AM fluorescence at 510 nm following excitation at 340 nm and 380 nm (F340nm/380nm). […] Ca^2+ responses over time were plotted in Prism software v8.4.2 (GraphPad Software, La Jolla, CA, USA). To determine relative P2X-mediated Ca^2+ responses, the area under the curve from 100 to 180 s was calculated with GraphPad Prism. To determine P2Y-mediated Ca^2+ responses the area under the curve from 30 to 100 s was calculated. In both cases, ATP-induced responses were calculated by subtracting the corresponding basal response. These responses were normalised to the maximal ATP-induced response within their respective experiment.

[3] = target: T2, hP2X7 (Homo sapiens, UniProt Q99572); assay: Fura-2AM Ca2+ response assay in HEK-hP2X7 cells; type: cell-based; settings: for maximum ATP response, Ca2+: increasing ATP; for EC50: EC50 of ATP
T2 construct: expressed in transfected cells; host or cells: HEK293 cells, stably transfected (HEK-hP2X7)
T2 sequence (Q99572 1-595): T1 sequence (Q99572 1-595)

Q: Which results are given for N=C(N)NC(=O)c1nc(-c2cc3cnccc3o2)c(N2CCCCCC2)nc1N [6-FPHMA, 6-furopyridine-substituted 5-(N,N-hexamethylene) amiloride]?
A: blockade of hP2X7-mediated dye uptake ([1]; 30 μM compound, 300 μM ATP, RPMI8226 cells): 100%; IC50 ([1]; read-out: IC50, hP2X7-mediated dye uptake): 0.58 ± 0.05 µM; IC50 ([2]; 2.5 μM ATP, AUC 30-100 s, read-out: IC50, endogenous hP2Y-mediated Ca2+ responses): 0.33 ± 0.13 µM; inhibition of hP2Y-mediated Ca2+ responses ([2]; 30 μM compound, 2.5 μM ATP): 97%; maximum ATP response, Ca2+ ([3]; 0.3 μM 6-FPHMA): 54 ± 7%; maximum ATP response, Ca2+ ([3]; 3 μM 6-FPHMA): 43 ± 6%; maximum ATP response, Ca2+ ([3]; 30 μM 6-FPHMA): 5 ± 1%; blockade of hP2X7-mediated Ca2+ responses ([3]; 30 μM compound, 720 μM ATP): 100%; mode of inhibition ([3]; Ca2+ response, HEK-hP2X7 cells): non-competitive; IC50 ([3]; read-out: IC50, hP2X7-mediated Ca2+ responses): 0.46 ± 0.14 µM

Q: What does the source list for Nc1ncnc2c1ncn2[C@@H]1O[C@H](COP(=O)(O)OP(=O)(O)OP(=O)(O)O)[C@@H](O)[C@H]1O [ATP, adenosine 5′-triphosphate]?
A: EC50 ([1]; RPMI8226 cells, no antagonist): 311 ± 21 µM; ATP concentration giving maximum Ca2+ response ([2]; HEK293 cells): 300 µM; EC50 ([2]; read-out: EC50 of ATP, Ca2+ response, HEK293 cells, AUC 30-100 s): 2.5 ± 1.01 µM; EC50 ([3]; Ca2+ response, HEK-hP2X7 cells, no antagonist (Figure 2F), AUC 100-180 s): 722 ± 76 µM; EC50 ([3]; Ca2+ response, in presence of 0.3 μM 6-FPHMA): 526 ± 131 µM; EC50 ([3]; Ca2+ response, in presence of 3 μM 6-FPHMA): 857 ± 317 µM; EC50 ([3]; Ca2+ response, in presence of 30 μM 6-FPHMA): 691 ± 151 µM; EC50 ([3]; Ca2+ response, pre-incubated with DMSO vehicle (Figure 2H)): 526 ± 127 µM
